For orientation: EC90 means the concentration needed for an effect of 90%. A higher EC90 goes with a need for much substance. A word on the EC99: it is the point of the concentration-response curve where the effect stands at 99%. High values mean weaker potency, low ones greater potency.

In brackets after ≈: the same amount, converted by molar mass. Bounds are passed on as bounds.

The values that follow come from ChEMBL document CHEMBL1145244, “In vitro advanced antimycobacterial screening of isoniazid-related hydrazones, hydrazides and cyanoboranes: part 14” (2005).

In experiment [1] the test system is Vero. Description: Selective index of IC50 of Vero Cells to that of MIC of Mycobacterium tuberculosis H37Rv. In kind it is functional, Chlorocebus sabaeus.
Experiment [2] has as its system Mycobacterium tuberculosis. Description: Ratio of effective concentration required for the reduction in colony forming units (CFU) at seven days compared to drug free controls to that of MIC against Mycobacterium tuberculosis Erdman. Format: functional.
In experiment [3] the test system is Mycobacterium tuberculosis. Description: Effective concentration required for the reduction in colony forming units (CFU) at seven days compared to drug free controls. In kind it is functional. To be noted: 168 h.
In experiment [4] the test system is Mycobacterium tuberculosis. Description: In vitro antimycobacterial activity against Mycobacterium tuberculosis H37Rv in broth cluture infected with macrophages. In kind it is functional.
Experiment [5] relates to Mycobacterium tuberculosis. Description: In vitro antimycobacterial activity against Mycobacterium tuberculosis Erdman in broth cluture infected with macrophages. In kind it is functional.
Experiment [6] deals with Mycobacterium tuberculosis. The experiment can be described thus: In vitro antimycobacterial activity against Mycobacterium tuberculosis H37Rv in broth cluture infected with macrophages; Range 0.025-0.05. Format: functional.

As to `O=C(N/N=C/c1ccc(C(F)(F)F)cc1)c1ccncc1`, in experiment [1], the Selective index is on record as above 1250. Moreover, the Ratio in experiment [2] is on record as 0.4. Also, in experiment [3], it took 0.04 µg/mL (≈ 0.136 µM) to reach the 90% level (EC90) and the EC99 stood at 0.09 µg/mL. Further, in experiment [4], the MBC was found to be 0.2 µg/mL (≈ 0.682 µM) and the MIC was 0.05 µg/mL (≈ 0.171 µM). Moreover, the MIC in experiment [5] was determined as 0.1 µg/mL (≈ 0.341 µM).

For the compound `O=C(N/N=C/c1ccccc1F)c1ccncc1`, the Selective index in experiment [1] is 168. In addition, the Ratio in experiment [2] stood at 1. Further, in experiment [3], it took 0.05 µg/mL (≈ 0.206 µM) to reach the 90% level (EC90) and the 99% effect level (EC99) was put at 0.14 µg/mL. The MIC in experiment [4] came out at 0.05 µg/mL (≈ 0.206 µM). Besides, the MIC in experiment [5] was determined as 0.05 µg/mL (≈ 0.206 µM).

Regarding `C/C(=N\NC(=O)c1ccncc1)C(F)(F)F`, the Selective index in experiment [1] was 1160. Moreover, the Ratio in experiment [2] amounted to 0.46. In addition, in experiment [3], the EC90 is 0.046 µg/mL (≈ 0.199 µM) and the EC99 stood at 0.41 µg/mL. In experiment [4], this compound registered an MBC of 0.2 µg/mL (≈ 0.865 µM) and an MIC of 0.05 µg/mL (≈ 0.216 µM). Further, the MIC in experiment [5] turned out to be 0.1 µg/mL (≈ 0.433 µM).

As for `C/C(=N\NC(=O)c1ccncc1)c1cccc(/C(C)=N/NC(=O)c2ccncc2)n1`, in experiment [1], the Selective index is reported as 320.5. For the same compound, the Ratio in experiment [2] stood at 0.23. Further, in experiment [3], the 90% effect level (EC90) was put at 0.09 µg/mL (≈ 0.224 µM) and the 99% effect concentration (EC99) was found to be 0.29 µg/mL. In experiment [4], the MBC worked out at 12.5 µg/mL (≈ 31.1 µM) and the MIC was at most 0.2 µg/mL. Further, the MIC in experiment [5] came out at 0.39 µg/mL (≈ 0.972 µM).

For `O=C(N/N=C/C(F)(F)F)c1ccncc1`, the Selective index in experiment [1] amounted to 302. Also, in experiment [3], it took 0.05 µg/mL (≈ 0.23 µM) to reach the 90% level (EC90) and the 99% effect level (EC99) was put at 0.25 µg/mL. In experiment [4], this compound yielded an MIC of 0.05 µg/mL (≈ 0.23 µM).

Take `C/C=N/NC(=O)c1ccncc1`: the Selective index in experiment [1] is listed as above 2500. Also, the Ratio in experiment [2] was determined as 1.2. Also, in experiment [3], the 90% effect level (EC90) was put at 0.03 µg/mL (≈ 0.184 µM) and the EC99 was 0.08 µg/mL. Further, in experiment [4], the MBC turned out to be 0.05 µg/mL (≈ 0.306 µM) and the MIC amounted to 0.025 µg/mL (≈ 0.153 µM). Besides, the MIC in experiment [5] was found to be 0.025 µg/mL (≈ 0.153 µM).

Regarding `C/C(=N\NC(=O)c1ccncc1)c1ccc(F)cc1`, the Selective index in experiment [1] is given as above 78. The Ratio in experiment [2] is on record as 1.18. In experiment [3], this compound yielded an EC90 of 1.84 µg/mL (≈ 7.15 µM) and an EC99 of 5.25 µg/mL. This compound also registered an MIC in experiment [4] of 1.6 µg/mL (≈ 6.22 µM). This compound displayed an MIC in experiment [5] of 1.56 µg/mL (≈ 6.06 µM).

Take `N#CC[n+]1ccc(C(=O)NNCc2ccccc2)cc1`: in experiment [2], the Ratio amounted to 0.0093. In experiment [3], this compound showed an EC90 of 0.116 µg/mL and an EC99 of 1.49 µg/mL. In addition, in experiment [4], the MBC came to 1.56 µg/mL and the MIC is 0.8 µg/mL. In addition, the MIC in experiment [5] was 12.5 µg/mL.

With `CC(NNC(=O)c1ccncc1)c1ccccc1F` (stereo not drawn), the Selective index in experiment [1] is 78.12. In addition, the Ratio in experiment [2] was 0.81. In experiment [3], the EC90 was determined as 2.54 µg/mL (≈ 9.8 µM) and the 99% effect level (EC99) was put at 6.06 µg/mL. Besides, in experiment [4], the MIC was found to be 1.6 µg/mL (≈ 6.17 µM). Moreover, the MIC in experiment [5] stood at 3.13 µg/mL (≈ 12.1 µM).

Turning to `N#CC[n+]1ccc(C(=O)NNCC(F)(F)F)cc1`, the Selective index in experiment [1] turned out to be 122. For the same compound, in experiment [2], the Ratio turned out to be 0.091. In experiment [3], this compound showed an EC90 of 1.14 µg/mL and an EC99 of 10.6 µg/mL. Moreover, in experiment [4], the MBC was found to be 3.13 µg/mL and the MIC was found to be 0.78 µg/mL. Moreover, in experiment [5], the MIC stood at 12.5 µg/mL.

For the compound `NNC(=O)c1ccncc1` [ISONIAZID], the Selective index in experiment [1] was above 20000. Also, in experiment [3], the concentration for an effect of 90% (EC90) is 0.03 µg/mL (≈ 0.219 µM) and the EC99 came to 0.42 µg/mL. In addition, the MBC in experiment [4] is 0.1 µg/mL (≈ 0.729 µM). In experiment [6], the MIC stood at 0.05 µg/mL (≈ 0.365 µM).
